From ChEMBL document CHEMBL3991601, “The target landscape of clinical kinase drugs” (Science, 2017) come the findings set out here.

SMILES strings stand for the structures. pKd: −log10 of the molar value. The source made the active and inactive calls. Where only a bound is given, the exact number is not on record here.

The target of one test is Myosin-14 (Homo sapiens, UniProt Q7Z406).
The target of test [1] is Serine/threonine-protein kinase pim-1 (Homo sapiens, UniProt P11309).
The next test concerns the target T1, Rab-like protein 3 (Homo sapiens, UniProt Q5HYI8).
T1 sequence (Q5HYI8 whole entry): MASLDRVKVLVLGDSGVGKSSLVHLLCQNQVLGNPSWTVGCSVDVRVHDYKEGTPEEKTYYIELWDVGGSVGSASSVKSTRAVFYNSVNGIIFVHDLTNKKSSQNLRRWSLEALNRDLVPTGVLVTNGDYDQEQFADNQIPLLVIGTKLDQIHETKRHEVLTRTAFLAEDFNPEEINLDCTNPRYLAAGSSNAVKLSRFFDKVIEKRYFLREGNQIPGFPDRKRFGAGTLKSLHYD

The target of test [2] is T2, Mitogen-activated protein kinase kinase kinase 6 (Homo sapiens, UniProt O95382).
T2 sequence (O95382 whole entry): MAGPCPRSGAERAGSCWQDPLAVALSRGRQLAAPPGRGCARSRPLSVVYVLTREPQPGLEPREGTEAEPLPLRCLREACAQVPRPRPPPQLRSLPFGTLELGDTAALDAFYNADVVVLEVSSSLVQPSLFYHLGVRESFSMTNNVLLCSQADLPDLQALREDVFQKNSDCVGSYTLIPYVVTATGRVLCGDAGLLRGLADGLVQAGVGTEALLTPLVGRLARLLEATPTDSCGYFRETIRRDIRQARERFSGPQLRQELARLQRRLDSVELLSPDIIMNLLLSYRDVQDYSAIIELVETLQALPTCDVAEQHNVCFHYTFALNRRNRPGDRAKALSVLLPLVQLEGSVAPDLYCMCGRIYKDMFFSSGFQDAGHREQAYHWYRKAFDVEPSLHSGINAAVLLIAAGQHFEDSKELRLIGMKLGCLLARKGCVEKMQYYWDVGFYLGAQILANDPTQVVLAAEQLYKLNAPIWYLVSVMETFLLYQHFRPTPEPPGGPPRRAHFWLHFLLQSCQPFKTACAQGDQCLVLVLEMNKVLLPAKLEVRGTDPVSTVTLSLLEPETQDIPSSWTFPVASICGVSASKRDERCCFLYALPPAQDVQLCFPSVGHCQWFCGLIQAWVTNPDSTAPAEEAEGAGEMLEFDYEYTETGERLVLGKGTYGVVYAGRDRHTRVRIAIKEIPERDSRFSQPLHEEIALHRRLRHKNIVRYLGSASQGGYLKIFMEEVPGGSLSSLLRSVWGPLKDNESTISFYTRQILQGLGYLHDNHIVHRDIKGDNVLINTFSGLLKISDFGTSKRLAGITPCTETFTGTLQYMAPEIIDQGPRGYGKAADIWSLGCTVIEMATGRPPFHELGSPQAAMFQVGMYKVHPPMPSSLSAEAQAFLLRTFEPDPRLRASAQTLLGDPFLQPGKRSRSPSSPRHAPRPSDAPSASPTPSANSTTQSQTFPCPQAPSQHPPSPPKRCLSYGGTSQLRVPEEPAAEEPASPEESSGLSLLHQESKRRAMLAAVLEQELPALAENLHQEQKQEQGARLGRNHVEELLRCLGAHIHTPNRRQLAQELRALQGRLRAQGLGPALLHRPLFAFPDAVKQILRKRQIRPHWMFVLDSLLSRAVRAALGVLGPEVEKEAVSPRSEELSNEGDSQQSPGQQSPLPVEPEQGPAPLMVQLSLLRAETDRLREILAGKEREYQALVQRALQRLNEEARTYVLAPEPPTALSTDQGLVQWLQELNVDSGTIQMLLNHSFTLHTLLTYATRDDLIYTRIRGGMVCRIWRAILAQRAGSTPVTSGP

For test [3], the target named is T3, Succinate--CoA ligase [ADP-forming] subunit beta, mitochondrial (Homo sapiens, UniProt Q9P2R7).
T3 sequence (Q9P2R7 whole entry): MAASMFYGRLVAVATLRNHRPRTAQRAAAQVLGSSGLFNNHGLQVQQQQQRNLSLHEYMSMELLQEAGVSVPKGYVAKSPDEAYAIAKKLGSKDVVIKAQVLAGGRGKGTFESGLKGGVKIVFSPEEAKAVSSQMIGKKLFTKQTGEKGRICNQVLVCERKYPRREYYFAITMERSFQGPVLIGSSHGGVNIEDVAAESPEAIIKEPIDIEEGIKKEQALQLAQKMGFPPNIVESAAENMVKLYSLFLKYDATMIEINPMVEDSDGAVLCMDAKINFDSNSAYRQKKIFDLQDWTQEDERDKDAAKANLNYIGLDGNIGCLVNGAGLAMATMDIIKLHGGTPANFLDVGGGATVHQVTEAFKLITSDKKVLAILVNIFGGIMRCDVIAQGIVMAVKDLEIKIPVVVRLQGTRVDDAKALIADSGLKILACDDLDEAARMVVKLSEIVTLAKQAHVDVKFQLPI

The target of the next test is T4, dCTP pyrophosphatase 1 (Homo sapiens, UniProt Q9H773).
T4 sequence (Q9H773 whole entry): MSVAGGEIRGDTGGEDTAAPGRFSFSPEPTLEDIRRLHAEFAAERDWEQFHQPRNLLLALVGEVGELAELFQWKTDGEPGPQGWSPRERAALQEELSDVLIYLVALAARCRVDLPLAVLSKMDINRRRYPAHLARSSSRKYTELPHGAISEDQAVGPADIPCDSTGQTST

The target of test [4] is T5, Phosphatidylinositol 5-phosphate 4-kinase type-2 gamma (Homo sapiens, UniProt Q8TBX8).
T5 sequence (Q8TBX8 whole entry): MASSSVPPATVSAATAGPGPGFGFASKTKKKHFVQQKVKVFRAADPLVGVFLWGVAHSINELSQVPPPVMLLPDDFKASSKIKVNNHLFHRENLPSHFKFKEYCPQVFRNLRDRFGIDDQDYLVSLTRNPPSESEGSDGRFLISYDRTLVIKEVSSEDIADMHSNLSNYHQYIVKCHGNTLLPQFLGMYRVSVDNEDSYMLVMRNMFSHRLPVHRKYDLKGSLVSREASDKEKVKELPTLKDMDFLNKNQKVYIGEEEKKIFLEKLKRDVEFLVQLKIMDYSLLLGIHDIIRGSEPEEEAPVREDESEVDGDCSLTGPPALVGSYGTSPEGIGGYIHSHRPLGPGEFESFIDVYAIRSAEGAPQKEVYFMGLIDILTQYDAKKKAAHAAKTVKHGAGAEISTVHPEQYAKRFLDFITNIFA
Note: in the data inactive means no Kd found up to 30 µM.

Serine/threonine-protein kinase pim-1, sequence (P11309 whole entry): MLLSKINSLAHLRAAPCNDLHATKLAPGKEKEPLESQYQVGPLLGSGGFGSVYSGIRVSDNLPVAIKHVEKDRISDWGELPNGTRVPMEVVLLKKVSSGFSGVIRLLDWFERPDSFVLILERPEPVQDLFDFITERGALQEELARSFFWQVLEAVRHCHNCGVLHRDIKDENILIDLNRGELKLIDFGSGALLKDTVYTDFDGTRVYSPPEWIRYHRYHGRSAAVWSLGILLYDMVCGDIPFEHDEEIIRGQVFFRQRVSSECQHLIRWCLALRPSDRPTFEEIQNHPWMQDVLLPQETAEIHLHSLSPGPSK
Myosin-14, sequence (Q7Z406 whole entry): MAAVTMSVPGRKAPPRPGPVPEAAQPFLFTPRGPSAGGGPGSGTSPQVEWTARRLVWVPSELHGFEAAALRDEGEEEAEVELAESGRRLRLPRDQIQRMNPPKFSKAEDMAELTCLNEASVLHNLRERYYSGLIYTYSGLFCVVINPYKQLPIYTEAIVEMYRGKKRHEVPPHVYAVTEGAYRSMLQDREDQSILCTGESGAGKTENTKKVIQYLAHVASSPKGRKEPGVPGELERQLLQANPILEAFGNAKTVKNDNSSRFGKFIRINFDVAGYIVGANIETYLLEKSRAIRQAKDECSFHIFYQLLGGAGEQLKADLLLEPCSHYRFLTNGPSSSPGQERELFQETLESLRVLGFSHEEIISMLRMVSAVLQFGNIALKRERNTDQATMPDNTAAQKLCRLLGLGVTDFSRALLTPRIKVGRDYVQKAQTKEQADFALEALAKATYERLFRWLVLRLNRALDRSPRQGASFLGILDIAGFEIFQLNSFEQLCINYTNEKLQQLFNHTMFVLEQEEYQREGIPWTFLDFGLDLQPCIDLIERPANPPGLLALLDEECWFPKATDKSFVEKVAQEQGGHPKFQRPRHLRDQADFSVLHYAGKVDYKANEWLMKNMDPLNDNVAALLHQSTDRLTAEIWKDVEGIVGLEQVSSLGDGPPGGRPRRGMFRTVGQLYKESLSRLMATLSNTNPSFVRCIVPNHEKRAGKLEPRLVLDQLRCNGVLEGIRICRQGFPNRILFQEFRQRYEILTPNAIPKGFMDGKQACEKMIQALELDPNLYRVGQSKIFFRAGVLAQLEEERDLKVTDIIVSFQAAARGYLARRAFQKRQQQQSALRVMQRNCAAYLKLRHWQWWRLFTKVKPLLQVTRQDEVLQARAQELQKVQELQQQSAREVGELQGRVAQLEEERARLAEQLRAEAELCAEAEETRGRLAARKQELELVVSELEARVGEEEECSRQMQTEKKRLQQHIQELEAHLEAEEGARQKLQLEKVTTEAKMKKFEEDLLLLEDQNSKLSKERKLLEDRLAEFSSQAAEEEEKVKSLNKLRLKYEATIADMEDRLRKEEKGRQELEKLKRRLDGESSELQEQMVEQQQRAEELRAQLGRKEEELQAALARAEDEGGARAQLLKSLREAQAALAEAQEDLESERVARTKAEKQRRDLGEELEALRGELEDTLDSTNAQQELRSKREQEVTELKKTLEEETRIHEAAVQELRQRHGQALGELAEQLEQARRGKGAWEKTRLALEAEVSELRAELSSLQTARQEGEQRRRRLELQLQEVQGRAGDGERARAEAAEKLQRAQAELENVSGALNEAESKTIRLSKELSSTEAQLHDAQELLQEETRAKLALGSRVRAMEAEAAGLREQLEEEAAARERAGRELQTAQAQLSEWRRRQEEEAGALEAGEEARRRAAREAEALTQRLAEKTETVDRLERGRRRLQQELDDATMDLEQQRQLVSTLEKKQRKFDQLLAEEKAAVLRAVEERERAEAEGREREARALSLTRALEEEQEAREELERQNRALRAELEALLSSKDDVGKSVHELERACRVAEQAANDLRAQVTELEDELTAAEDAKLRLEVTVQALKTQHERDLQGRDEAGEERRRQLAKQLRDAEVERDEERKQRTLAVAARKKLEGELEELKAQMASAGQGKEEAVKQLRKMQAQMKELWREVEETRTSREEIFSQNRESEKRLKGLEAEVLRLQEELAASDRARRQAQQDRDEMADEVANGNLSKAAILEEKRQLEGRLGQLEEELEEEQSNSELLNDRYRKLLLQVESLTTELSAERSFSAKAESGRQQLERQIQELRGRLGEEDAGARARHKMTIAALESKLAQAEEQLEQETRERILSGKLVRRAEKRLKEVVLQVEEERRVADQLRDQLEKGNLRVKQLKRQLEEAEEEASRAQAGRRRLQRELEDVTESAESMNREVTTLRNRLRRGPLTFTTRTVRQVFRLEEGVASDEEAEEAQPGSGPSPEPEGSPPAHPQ

By Kd is commonly meant the constant that tells how readily two partners part at equilibrium. In the case of `Cc1ccc(C(=O)Nc2ccc(Oc3cc4cnn(C)c4cc3-c3cn[nH]c3)c(F)c2)c(=O)n1-c1ccc(F)cc1` [MERESTINIB], the Kd (at Myosin-14; in test [1]; on Rab-like protein 3; in test [2]; in test [3]; on dCTP pyrophosphatase 1) was > 30 µM (inactive) in each case. For the same compound, in test [4], the Kd is > 30 µM (inactive).

With `C#Cc1cccc(Nc2ncnc3cc4c(cc23)OCCOCCOCCO4)c1` [ICOTINIB], the Kd (at Myosin-14; in test [1]; on Rab-like protein 3; in test [2]; in test [3]; on dCTP pyrophosphatase 1) was > 30 µM (inactive) in each case. The Kd in test [4] was 4.66 µM (active).

`COc1cc(F)c(F)c(Nc2ccc(I)cc2F)c1NS(=O)(=O)C1(C[C@H](O)CO)CC1` [REFAMETINIB]: the Kd (on Myosin-14; in test [1]; at Rab-like protein 3; in test [2]; in test [3]; at dCTP pyrophosphatase 1) was > 30 µM (inactive) throughout. In addition, the Kd in test [4] is > 30 µM (inactive).

As to `COc1cc2ncnc3c2cc1OCCCCCN(C)Cc1ccc(Br)cc1N3` [JNJ-26483327], the Kd (at Myosin-14; in test [1]; on Rab-like protein 3; in test [2]; in test [3]; on dCTP pyrophosphatase 1) was > 30 µM (inactive) each time. For the same compound, in test [4], the Kd was > 30 µM (inactive).

Turning to `CNC(=O)c1cccc(-c2ccc3c(N4CCOC[C@@H]4C)nc(N4CCOC[C@@H]4C)nc3n2)c1` [VISTUSERTIB], the Kd (at Myosin-14; in test [1]; on Rab-like protein 3; in test [2]; in test [3]; on dCTP pyrophosphatase 1) was > 30 µM (inactive) each time. In addition, the Kd in test [4] is > 30 µM (inactive).

As usually defined, the pKd is the Kd on a negative log10 scale, so that one unit is a factor of ten. A higher pKd goes with a low Kd. On to `CC1(COc2ccc3c(c2)ncn3-c2ccc3cccc(N4CCC(N)CC4)c3n2)COC1` [CRENOLANIB], for which the Kd (at Myosin-14; in test [1]; at Rab-like protein 3; in test [2]; on dCTP pyrophosphatase 1; in test [4]) was > 30 µM (inactive) throughout. For the same compound, the pKd in test [3] was 8.15.

Consider `NC(=O)c1ccc(N(C(N)=O)c2c(F)cccc2F)nc1-c1ccc(F)cc1F` [VX-702], for which the Kd (on Myosin-14; in test [1]; on Rab-like protein 3; in test [2]; in test [3]; at dCTP pyrophosphatase 1) was > 30 µM (inactive) each time. Besides, in test [4], the Kd was > 30 µM (inactive).

For `CNC(=O)c1ccc(Nc2ncc(C(F)(F)F)c(NCc3nccnc3N(C)S(C)(=O)=O)n2)cc1` [DEFACTINIB], the Kd (at Myosin-14; in test [1]; at Rab-like protein 3; in test [2]; in test [3]; on dCTP pyrophosphatase 1) was > 30 µM (inactive) in each case. In addition, the Kd in test [4] was > 30 µM (inactive).

With `Cc1cc(C(=O)Nc2cc(Oc3ccc4nc(NC(=O)C5CC5)cn4n3)ccc2C)n(C)n1` [TAK-593], the Kd (on Myosin-14; in test [1]; at Rab-like protein 3; in test [2]; in test [3]; at dCTP pyrophosphatase 1) was > 30 µM (inactive) each time. The Kd in test [4] was > 30 µM (inactive).

Take `O=S(=O)(c1cccc2c(O)nccc12)N1CCCNCC1` [HYDROXYFASUDIL]: the Kd (on Myosin-14; in test [1]; at Rab-like protein 3; in test [2]; in test [3]; at dCTP pyrophosphatase 1) was > 30 µM (inactive) throughout. In addition, the Kd in test [4] was > 30 µM (inactive).
